In the test the test system is Endogenous Huntingtin Protein. The test is described as follows: Endogenous Huntingtin Protein Assay (ELISA-based MSD electrochemiluminescence). The following applies: Table 1. The test is classed as cell-based. The essentials:
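Sandwich MSD electrochemiluminescence immunoassay. Capture used MW1 (expanded polyglutamine) or MAB2166 antibody coated at 1 μg/mL overnight at 4 °C. Samples were bound overnight at 4 °C, then a rabbit monoclonal detection antibody and SULFO-TAG anti-rabbit, each at 0.25 μg/mL, were applied for 1 h at room temperature.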
Usually IC50 stands for the concentration at which inhibition is half-maximal. Consider `Cc1cn2nc(-c3cc(F)c4nc(C5CCNCC5)sc4c3)cc(C(N)=O)c2n1` [Compound 224, 6-[4-fluoro-2-(piperidin-4-yl)-1,3-benzothiazol-6-yl]-2-methylimidazo[1,2-b]pyridazine-8-carboxamide], for which the IC50 was ≤ 0.1 µM.
Take `CN(c1nc2nnc(-c3ccc(-c4c[nH]nc4F)cc3O)cc2s1)C1CCNC1` (stereo not drawn) [Compound 387, 5-(3-fluoro-1H-pyrazol-4-yl)-2-[6-[methyl(pyrrolidin-3-yl)amino][1,3]thiazolo[4,5-c]pyridazin-3-yl}phenol]: the IC50 was ≤ 0.1 µM.
Consider `Cc1cn2nc(-c3cc(F)c4nc(C5CCNCC5)sc4c3)cc(N(C)C)c2n1` [Compound 168, 6-[4-fluoro-2-(piperidin-4-yl)-1,3-benzothiazol-6-yl]-N,N,2-trimethylimidazo[1,2-b]pyridazin-8-amine], for which the IC50 was ≤ 0.1 µM.
`Cc1cn2cc(-c3ccc4nc(C5CCNCC5)sc4c3)cc(F)c2n1` [Compound 113, 6-(8-fluoro-2-methylimidazo[1,2-a]pyridin-6-yl)-2-(piperidin-4-yl)-1,3-benzothiazole]: the 50% inhibitory concentration (IC50) is ≤ 0.1 µM.
Turning to `Cc1cn2cc(-c3cc4sc(N[C@@H]5C[C@H]6CC[C@@H](C5)N6C)nc4cn3)cc(F)c2n1` [Compound 247, 6-(8-fluoro-2-methylimidazo[1,2-a]pyridin-6-yl)-N-[(3-exo)-8-methyl-8-azabicyclo[3.2.1]oct-3-yl][1,3]thiazolo[4,5-c]pyridin-2-amine], the IC50 fell in the range of 0.1 to 0.5 µM.
`Cc1cc(-c2cnc3nc(N(C)C4CCNCC4)sc3c2)cc2cn(C)nc12` [Compound 13, 6-(2,7-dimethyl-2H-indazol-5-yl)-N-methyl-N-(piperidin-4-yl)[1,3]thiazolo[4,5-b]pyridin-2-amine] registered an IC50 of 0.5 to 1 µM.
`COC(=O)Cc1cc(-c2cc(F)c3nc(C4CCNCC4)sc3c2)nn2cc(C)nc12` [Compound 220, methyl {6-[4-fluoro-2-(piperidin-4-yl)-1,3-benzothiazol-6-yl]-2-methylimidazo[1,2-b]pyridazin-8-yl}acetate]: the IC50 is ≤ 0.1 µM.
Regarding `Cc1cn2cc(-c3ncc4nc(N(C)C5CC6CCC(C5)N6)sc4n3)cc(C#N)c2n1` (stereo not drawn) [Compound 207, 6-{2-[(3-exo)-8-azabicyclo[3.2.1]oct-3-yl(methyl)amino][1,3]thiazolo[5,4-d]pyrimidin-5-yl}-2-methylimidazo[1,2-a]pyridine-8-carbonitrile], the IC50 is ≤ 0.1 µM.
With `Cc1cn2nc(-c3cc(F)c4nc(C56CCN(CC5)CC6)sc4c3)cc(C)c2n1` [Compound 194, 6-[2-(1-azabicyclo[2.2.2]oct-4-yl)-4-fluoro-1,3-benzothiazol-6-yl]-2,8-dimethylimidazo[1,2-b]pyridazine], the half-inhibitory concentration (IC50) is ≤ 0.1 µM.
For `CN1CCC(N(C)c2nc3nnc(-c4ccc(-c5c[nH]nc5F)cc4O)cc3s2)C1` (stereo not drawn) [Compound 391, 5-(3-fluoro-1H-pyrazol-4-yl)-2-{6-[methyl(1-methylpyrrolidin-3-yl)amino][1,3]thiazolo[4,5-c]pyridazin-3-yl]phenol], the half-maximal inhibitory concentration (IC50) was ≤ 0.1 µM.
Take `CN(c1nc2nnc(-c3ccc(-c4cn[nH]c4)cc3O)cc2s1)C1CNC1` [Compound 353, 2-{6-[(azetidin-3-yl)(methyl)amino][1,3]thiazolo[4,5-c]pyridazin-3-yl}-5-(1H-pyrazol-4-yl)phenol]: the IC50 is 0.1 to 0.5 µM.
`CCc1cc(-c2ccc3nc(N(C)C4CC(C)(C)NC(C)(C)C4)sc3c2)cc2cn(C)nc12` [Compound 54, 6-(7-ethyl-2-methyl-2H-indazol-5-yl)-N-methyl-N-(2,2,6,6-tetramethylpiperidin-4-yl)-1,3-benzothiazol-2-amine] came in with an IC50 of 0.1 to 0.5 µM.
On to `Cc1cn2cc(-c3cc4sc(N(C)C5CC(C)(C)NC(C)(C)C5)nc4cn3)cc(C#N)c2n1` [Compound 179, 2-methyl-6-{2-[methyl(2,2,6,6-tetramethylpiperidin-4-yl)amino][1,3]thiazolo[4,5-c]pyridin-6-yl}imidazo[1,2-a]pyridine-8-carbonitrile], for which the IC50 was ≤ 0.1 µM.
For the compound `Cn1cc2cc(-c3ccc4nc(NC5CCNCC5)sc4c3)ccc2n1` [Compound 35, 6-(2-methyl-2H-indazol-5-yl)-N-(piperidin-4-yl)-1,3-benzothiazol-2-amine], the IC50 is 0.1 to 0.5 µM.
Consider `Cn1cc2cc(-c3cc(F)c4nc(OC5CCNCC5)sc4c3)cc(F)c2n1` [Compound 307, 4-fluoro-6-(7-fluoro-2-methyl-2H-indazol-5-yl)-2-[(piperidin-4-yl)oxy]-1,3-benzothiazole], for which the IC50 was ≤ 0.1 µM.
The result for `Cn1cc2cc(-c3cc4sc(OC5CCNCC5)nc4cn3)cc(F)c2n1` [Compound 316, 6-(7-fluoro-2-methyl-2H-indazol-5-yl)-2-[(piperidin-4-yl)oxy][1,3]thiazolo[4,5-c]pyridine] reads 0.1 to 0.5 µM; that for `Cc1cn2nc(-c3cc(F)c4nc(C5=CCNCC5)sc4c3)ccc2n1` [Compound 44, 6-[4-fluoro-2-(1,2,3,6-tetrahydropyridin-4-yl)-1,3-benzothiazol-6-yl]-2-methylimidazo[1,2-b]pyridazine], ≤ 0.1 µM.
For `Cc1cn2cc(-c3ccc4nc(N(C)C5CC(C)(C)NC(C)(C)C5)sc4c3)cc2c(C)n1` [Compound 55, 6-(1,3-dimethylpyrrolo[1,2-a]pyrazin-7-yl)-N-methyl-N-(2,2,6,6-tetramethylpiperidin-4-yl)-1,3-benzothiazol-2-amine], the IC50 was ≤ 0.1 µM.
For the compound `CN(c1nc2ccc(-c3ccc(-c4cn[nH]c4)cc3O)nc2s1)C1CC(C)(C)NC(C)(C)C1` [Compound 149, 2-{2-[methyl(2,2,6,6-tetramethylpiperidin-4-yl)amino][1,3]thiazolo[5,4-b]pyridin-5-yl}-5-(1H-pyrazol-4-yl)phenol], the concentration for half-maximal inhibition (IC50) fell in the range of 0.1 to 0.5 µM.
On to `CN(c1nc2cnc(-c3cc(F)c4nn(C)cc4c3)nc2s1)C1CC2CCC(C1)N2` (stereo not drawn) [Compound 218, N-[(3-exo)-8-azabicyclo[3.2.1]oct-3-yl]-5-(7-fluoro-2-methyl-2H-indazol-5-yl)-N-methyl[1,3]thiazolo[5,4-d]pyrimidin-2-amine], for which the IC50 lay within 0.1 to 0.5 µM.
`Cc1cn2nc(-c3cc(F)c4nc(N(C)C5CC(C)(C)NC(C)(C)C5)sc4c3)cc(N)c2n1` [Compound 201, 6-{4-fluoro-2-[methyl(2,2,6,6-tetramethylpiperidin-4-yl)amino]-1,3-benzothiazol-6-yl}-2-methylimidazo[1,2-b]pyridazin-8-amine] displayed an IC50 of 0.1 to 0.5 µM.
On to `CN1CCC(N(C)c2nc3nnc(-c4ccc(-c5cn[nH]c5)cc4O)cc3s2)C1` (stereo not drawn) [Compound 375, 2-{6-[methyl(1-methylpyrrolidin-3-yl)amino][1,3]thiazolo[4,5-c]pyridazin-3-yl}-5-(1H-pyrazol-4-yl)phenol], for which the concentration for half-maximal inhibition (IC50) was ≤ 0.1 µM.
Take `Cc1cn2cc(-c3cc4sc(N(C)C5CC(C)(C)NC(C)(C)C5)nc4cn3)cc(F)c2n1` [Compound 147, 6-(8-fluoro-2-methylimidazo[1,2-a]pyridin-6-yl)-N-methyl-N-(2,2,6,6-tetramethylpiperidin-4-yl)[1,3]thiazolo[4,5-c]pyridin-2-amine]: the IC50 is ≤ 0.1 µM.
The figure for `Cn1cc2cc(-c3ccc4nc(C5=CCNCC5)sc4c3)ccc2n1` [Compound 1, 6-(2-methyl-2H-indazol-5-yl)-2-(1,2,3,6-tetrahydropyridin-4-yl)-1,3-benzothiazole] is 0.1 to 0.5 µM; for `CN(c1nc2nnc(-c3ccc(-n4ccnc4)cc3O)cc2s1)C1CCNCC1` [Compound 327, 5-(1H-imidazol-1-yl)-2-{6-[methyl(piperidin-4-yl)amino][1,3]thiazolo[4,5-c]pyridazin-3-yl}phenol] it is 0.1 to 0.5 µM.
Consider `CN(c1nc2nnc(-c3ccc(-c4cn[nH]c4)cc3O)cc2s1)[C@H]1CCCNC1` [Compound 349, 2-(6-{methyl[(3S)-piperidin-3-yl]amino}[1,3]thiazolo[4,5-c]pyridazin-3-yl)-5-(1H-pyrazol-4-yl)phenol], for which the IC50 is ≤ 0.1 µM.
In the case of `CN(c1nc2ccc(-c3cc(C#N)c4nn(C)cc4c3)nc2s1)C1CC2CCC(C1)N2` (stereo not drawn) [Compound 278, 5-{2-[(3-exo)-8-azabicyclo[3.2.1]oct-3-yl(methyl)amino][1,3]thiazolo[5,4-b]pyridin-5-yl}-2-methyl-2H-indazole-7-carbonitrile], the IC50 was ≤ 0.1 µM.
`Oc1cc(-c2c[nH]nc2F)ccc1-c1cc2sc(N3CC4(CCNCC4)C3)nc2nn1` [Compound 341, 2-[6-(2,7-diazaspiro[3.5]nonan-2-yl)[1,3]thiazolo[4,5-c]pyridazin-3-yl]-5-(3-fluoro-1H-pyrazol-4-yl)phenol] gave an IC50 of 0.5 to 1 µM.
For `CN(c1nc2cnc(-c3cc(F)c4nn(C)cc4c3)cc2s1)C1CC2CCCC(C1)N2` (stereo not drawn) [Compound 253, N-(9-azabicyclo[3.3.1]non-3-yl)-6-(7-fluoro-2-methyl-2H-indazol-5-yl)-N-methyl[1,3]thiazolo[4,5-c]pyridin-2-amine], the IC50 is ≤ 0.1 µM.
The result for `Cc1cn2cc(-c3ccc4nc(N(C)C5CC6CCCC(C5)N6)sc4n3)cc(F)c2n1` (stereo not drawn) [Compound 280, N-[(3-exo)-9-azabicyclo[3.3.1]non-3-yl]-5-(8-fluoro-2-methylimidazo[1,2-a]pyridin-6-yl)-N-methyl[1,3]thiazolo[5,4-b]pyridin-2-amine] reads ≤ 0.1 µM.
Consider `CN(c1nc2ccc(-c3ccc4nn(C)cc4c3)cc2s1)C1CCNC1` (stereo not drawn) [Compound 38, N-methyl-6-(2-methyl-2H-indazol-5-yl)-N-(pyrrolidin-3-yl)-1,3-benzothiazol-2-amine], for which the IC50 lay within 1 to 3 µM.
Regarding `CN[C@H]1C[C@H](N(C)c2nc3nnc(-c4ccc(-c5cn[nH]c5)cc4O)cc3s2)C1` [Compound 376, 2-(6-{methyl[(1r,3r)-3-(methylamino)cyclobutyl]amino}[1,3]thiazolo[4,5-c]pyridazin-3-yl)-5-(1H-pyrazol-4-yl)phenol], the IC50 lay within 0.1 to 0.5 µM.
`Oc1cc(-c2c[nH]nc2F)ccc1-c1cc2sc(N3CC4(CNC4)C3)nc2nn1` [Compound 368, 2-[6-(2,6-diazaspiro[3.3]heptan-2-yl)[1,3]thiazolo[4,5-c]pyridazin-3-yl]-5-(3-fluoro-1H-pyrazol-4-yl)phenol]: the IC50 fell in the range of 0.1 to 0.5 µM.
